Reference: US11433086B2, “Combination of T-cell checkpoint inhibitors with inhibitors of e-selectin or CXCR4, or with heterobifunctional inhibitors of both E-selectin and CXCR4” (GlycoMimetics, Inc., priority 2016, dated 2022)

What was measured:
CXCR4 = molecular target: T1, CXCR4 (Homo sapiens, UniProt P61073); test: Flow based competitive binding assay, anti-CXCR4 antibody binding to Raji cells; details: phycoerythrin-conjugated anti-CXCR4 antibody
T1 construct: host or cells: Raji cells
Method: (§1) FIG. 21 relates to an experiment carried out to determine the competitive binding activity (IC50) of GMI-1359 against E-selectin and CXCR4. GMI-1359 was assessed for inhibition of sialyl Le^X binding to immobilized E-selectin and α-CXCR4 antibody binding to Raji cells.
The inhibition assay to screen GMI-1359 as an antagonist of CXCR4 was a flow based competitive binding assay, which allowed the determination of […] values. Raji cells (ATCC number TIB-152) were washed twice with Hanks Balanced Saline Solution (HBSS) containing 0.05% bovine serum albumin (BSA). After the second wash, the cells were resuspended to about 2.5×10^6 cells per mL and 80 μl of cells (approximately 2×10^5 cells) were added to BD 2063 tubes. Next, 10 μl of either GMI-1359 or HBSS/BSA (as a negative control) were added to the cells and the tube was placed at room temperature for 10 minutes. Then, 10 μl of a phycoerythrin-conjugated anti-CXCR4 antibody (R&D Systems, FAB170P) or as a negative control, 10 μl of an isotype control antibody (R&D Systems, IC003P) was added to the cells with HBSS/BSA. The antibodies were allowed to bind to the cells for 1 hour at 4° C. […] Binding of the anti-CXCR4-PE antibody to the cells was assessed by flow cytometry, and the median fluorescent intensity was determined. […]

[1] = tested on: Human E-selectin/Ig chimera; test: Competitive binding assay, sLe^a-polyacrylamide conjugate to immobilized E-selectin; details: sLe^a-polyacrylamide/streptavidin-HRP conjugate
Method: as §1
The inhibition assay to screen GMI-1359 as an antagonist of E-selectin was a competitive binding assay, which allowed the determination of IC50 values. Human E-selectin/Ig chimera was immobilized by incubation at 37° C. for 2 hour in 96-well microtiter plates. To reduce nonspecific binding, BSA was added to each well and incubated at room temperature for 2 hours. After incubation with E-selectin/Ig chimera, the plate was washed and serial dilutions of the test compounds were added to the wells in the presence of conjugates of biotinylated, sLe^a-polyacrylamide with streptavidin/horseradish peroxidase and incubated for 2 hours at room temperature. To determine the amount of sLe^a bound to immobilized E-selectin after washing, the peroxidase substrate, 3,3′,5,5′ tetramethylbenzidin (TMB) was added. After 3 minutes, the enzyme reaction was stopped by the addition of H3PO4, and the absorbance of light at a wavelength of 450 nm was determined. […]

T1 sequence (P61073 whole entry): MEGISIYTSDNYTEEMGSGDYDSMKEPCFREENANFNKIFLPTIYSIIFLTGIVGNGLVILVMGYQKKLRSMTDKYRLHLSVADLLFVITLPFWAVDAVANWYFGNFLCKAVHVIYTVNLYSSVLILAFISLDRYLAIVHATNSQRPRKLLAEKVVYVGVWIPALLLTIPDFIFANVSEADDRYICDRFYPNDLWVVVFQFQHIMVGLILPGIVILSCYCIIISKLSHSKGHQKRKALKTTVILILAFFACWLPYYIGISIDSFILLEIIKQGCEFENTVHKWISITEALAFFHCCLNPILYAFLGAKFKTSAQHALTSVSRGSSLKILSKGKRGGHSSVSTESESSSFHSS

`CCC1CC(C(=O)NCCNCc2ccc(CN3CCCNCCNCCCNCC3)c(Br)c2)CC(OC2OC(CO)C(O)C(O[C@@H](CC3CCCCC3)C(=O)O)C2NC(C)=O)C1OC1OC(C)C(O)C(O)C1O` (some centres unmarked) [GMI-1359] was tested, and the “inhibition of anti-CXCR4 antibody binding” value (CXCR4) was “inhibits ligand binding” and the “inhibition of ligand binding to E-selectin” value [1] was “inhibits ligand binding”.
